Reference: the supplement of paper PMC11061612

Tests used:
Assay in all cases: combination Emax (second highest fraction inhibited in the dose matrix, 72 h); higher = more inhibition; extreme values may be limits of the assay
[1] = test system: RF-48 (B-Cell Non-Hodgkin's Lymphoma)
In short: (§1)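 Cell lines grown in DMEM/F12 or RPMI with 10% FBS were plated in 1536-well plates and held 24 hours at 37°C, 5% CO2 before 72 hours of exposure to two-drug dose matrices, with DMSO typically at 0.2%. CellTiter-Glo 2.0 luminescence gave viability, which was converted to inhibition. Vehicle wells were set to 0 and blank wells to 1. Combination Emax is the second-highest inhibition in the matrix, and Bliss excess is the observed combination effect minus the expected EA + EB − EA·EB, where EA and EB are the single-agent effects.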

TGW (Neuroblastoma) = test system: TGW (Neuroblastoma)
In short: as §1

[2] = test system: MIA-PaCa-2 (Pancreatic Carcinoma)
In short: as §1

[3] = test system: PANC-04-03 (Pancreatic Carcinoma)
In short: as §1

[4] = test system: C-4-I (Cervical Carcinoma)
In short: as §1

[5] = test system: Hs-766T (Pancreatic Carcinoma)
In short: as §1

[6] = test system: HOP-62 (Lung Adenocarcinoma)
In short: as §1

[7] = test system: BT-549 (Breast Carcinoma)
In short: as §1

[8] = test system: EFM-19 (Breast Carcinoma)
In short: as §1

[9] = test system: NEC8 (Other Solid Carcinomas)
In short: as §1

[10] = test system: OSC-20 (Oral Cavity Carcinoma)
In short: as §1

[11] = test system: VA-ES-BJ (Other Solid Carcinomas)
In short: as §1

NB69 (Neuroblastoma) = test system: NB69 (Neuroblastoma)
In short: as §1

[12] = test system: SU8686 (Pancreatic Carcinoma)
In short: as §1

UACC-62 (Melanoma) = test system: UACC-62 (Melanoma)
In short: as §1

D-263MG (Glioblastoma) = test system: D-263MG (Glioblastoma)
In short: as §1

[13] = test system: KYSE-450 (Esophageal Squamous Cell Carcinoma)
In short: as §1

[14] = test system: NCI-H727 (Other Solid Carcinomas)
In short: as §1

ACHN (Kidney Carcinoma) = test system: ACHN (Kidney Carcinoma)
In short: as §1

[15] = test system: Ca9-22 (Head and Neck Carcinoma)
In short: as §1

CC1(C)CCC(CN2CCN(c3ccc(C(=O)NS(=O)(=O)c4ccc(NCC5CCOCC5)c([N+](=O)[O-])c4)c(Oc4cnc5[nH]ccc5c4)c3)CC2)=C(c2ccc(Cl)cc2)C1 [Venetoclax] + COc1cc(Nc2ncc3c(n2)-c2ccc(Cl)cc2C(c2c(F)cccc2OC)=NC3)ccc1C(=O)O [Alisertib] (first compound max 1 µM, 7x7, partner max 10 µM)
combination Emax [1]: 0.59 | combination Emax (TGW (Neuroblastoma)): 0.972 | combination Emax [2]: 0.583 | combination Emax [3]: 0.263 | combination Emax [4]: 0.804 | combination Emax [5]: 0.393 | combination Emax [6]: 0.456 | combination Emax [7]: 0.529 | combination Emax [8]: 0.557 | combination Emax [9]: 0.183 | combination Emax [10]: 0.345 | combination Emax [11]: 0.505 | combination Emax (NB69 (Neuroblastoma)): 0.915 | combination Emax [12]: 0.117 | combination Emax (UACC-62 (Melanoma)): 0.314 | combination Emax (D-263MG (Glioblastoma)): 0.518 | combination Emax [13]: 0.437 | combination Emax [14]: 0.326 | combination Emax (ACHN (Kidney Carcinoma)): 0.698 | combination Emax [15]: 0.706

CC1(C)CCC(CN2CCN(c3ccc(C(=O)NS(=O)(=O)c4ccc(NCC5CCOCC5)c([N+](=O)[O-])c4)c(Oc4cnc5[nH]ccc5c4)c3)CC2)=C(c2ccc(Cl)cc2)C1 [Venetoclax] + C[C@@H]1COCCN1C2=NC(=NC(=C2)C3(CC3)[S@](=N)(=O)C)C4=C5C=CNC5=NC=C4 [AZD6738] (first compound max 1 µM, 7x7, partner max 10 µM)
combination Emax [1]: 0.562 | combination Emax (TGW (Neuroblastoma)): 0.715 | combination Emax [2]: 0.666 | combination Emax [3]: 0.443 | combination Emax [4]: 0.906 | combination Emax [5]: 0.565 | combination Emax [6]: 0.624 | combination Emax [7]: 0.52 | combination Emax [8]: 0.495 | combination Emax [9]: 0.749 | combination Emax [10]: 0.425 | combination Emax [11]: 0.813 | combination Emax (NB69 (Neuroblastoma)): 0.884 | combination Emax [12]: 0.0868 | combination Emax (UACC-62 (Melanoma)): 0.481 | combination Emax (D-263MG (Glioblastoma)): 0.515 | combination Emax [13]: 0.519 | combination Emax [14]: 0.616 | combination Emax (ACHN (Kidney Carcinoma)): 0.937 | combination Emax [15]: 0.865

CC1(C)CCC(CN2CCN(c3ccc(C(=O)NS(=O)(=O)c4ccc(NCC5CCOCC5)c([N+](=O)[O-])c4)c(Oc4cnc5[nH]ccc5c4)c3)CC2)=C(c2ccc(Cl)cc2)C1 [Venetoclax] + C[C@@H](Nc1cc(F)cc(F)c1)c1cc(C(=O)N(C)C)cc2c(=O)cc(N3CCOCC3)oc12 [AZD8186] (first compound max 1 µM, 7x7, partner max 3 µM)
combination Emax [1]: 0.345 | combination Emax (TGW (Neuroblastoma)): 0.377 | combination Emax [2]: 0.153 | combination Emax [3]: 0.149 | combination Emax [4]: 0.398 | combination Emax [5]: 0.349 | combination Emax [6]: 0.264 | combination Emax [7]: 0.258 | combination Emax [8]: 0.412 | combination Emax [9]: 0.0292 | combination Emax [10]: 0.128 | combination Emax [11]: 0.149 | combination Emax (NB69 (Neuroblastoma)): 0.998 | combination Emax [12]: 0.127 | combination Emax (UACC-62 (Melanoma)): 0.398 | combination Emax (D-263MG (Glioblastoma)): 0.142 | combination Emax [13]: 0.118 | combination Emax [14]: 0.274 | combination Emax (ACHN (Kidney Carcinoma)): 0.842 | combination Emax [15]: 0.471

CC1(C)CCC(CN2CCN(c3ccc(C(=O)NS(=O)(=O)c4ccc(NCC5CCOCC5)c([N+](=O)[O-])c4)c(Oc4cnc5[nH]ccc5c4)c3)CC2)=C(c2ccc(Cl)cc2)C1 [Venetoclax] + Cc1cc2ncnn2cc1Nc1ncc2c(n1)n(C1CCOCC1)c(=O)n2C [AZD7648] (first compound max 1 µM, 7x7, partner max 10 µM)
combination Emax [1]: 0.321 | combination Emax (TGW (Neuroblastoma)): 0.393 | combination Emax [2]: 0.269 | combination Emax [3]: 0.286 | combination Emax [4]: 0.222 | combination Emax [5]: 0.372 | combination Emax [6]: 0.172 | combination Emax [7]: 0.258 | combination Emax [8]: 0.417 | combination Emax [9]: 0.205 | combination Emax [10]: 0.205 | combination Emax [11]: 0.233 | combination Emax (NB69 (Neuroblastoma)): 0.523 | combination Emax [12]: 0.152 | combination Emax (UACC-62 (Melanoma)): 0.221 | combination Emax (D-263MG (Glioblastoma)): 0.179 | combination Emax [13]: 0.14 | combination Emax [14]: 0.25 | combination Emax (ACHN (Kidney Carcinoma)): 0.725 | combination Emax [15]: 0.128

CC1(C)CCC(CN2CCN(c3ccc(C(=O)NS(=O)(=O)c4ccc(NCC5CCOCC5)c([N+](=O)[O-])c4)c(Oc4cnc5[nH]ccc5c4)c3)CC2)=C(c2ccc(Cl)cc2)C1 [Venetoclax] + Cn1cnc2c(F)c(Nc3ccc(Br)cc3Cl)c(C(=O)NOCCO)cc21 [Selumetinib] (first compound max 1 µM, 7x7, partner max 3 µM)
combination Emax [1]: 0.286 | combination Emax (TGW (Neuroblastoma)): 0.337 | combination Emax [2]: 0.403 | combination Emax [3]: 0.354 | combination Emax [4]: 0.385 | combination Emax [5]: 0.502 | combination Emax [6]: 0.435 | combination Emax [7]: 0.106 | combination Emax [8]: 0.232 | combination Emax [9]: 0.104 | combination Emax [10]: 0.172 | combination Emax [11]: 0.123 | combination Emax (NB69 (Neuroblastoma)): 0.919 | combination Emax [12]: 0.135 | combination Emax (UACC-62 (Melanoma)): 0.767 | combination Emax (D-263MG (Glioblastoma)): 0.119 | combination Emax [13]: 0.109 | combination Emax [14]: 0.601 | combination Emax (ACHN (Kidney Carcinoma)): 0.688 | combination Emax [15]: 0.222
